Several values for one entry are separate records, joined by “and”; a condition that tells them apart may be missing. Identical values can stand only once. *1 amine or outer side, *2 acyl side, *3 side chain or, on linkers, in order; H or OH if unused. Where a SMILES comes first, the peptide text is derived from it. Bridges are numbered along the chain shown (N, C = ends). [ ]: non-standard residue; d: D form. X1 = CC(=O)NC(C(=O)OC(C(C)C)C(N[*:1])C(=O)[*:2])C(O)C(C)C; PhLac = O=C(O)[CH](O)Cc1ccccc1; NMeT = CN[CH](C(=O)O)[CH](C)O; NMeA = CN[CH](C)C(=O)O; NMeDha = C=C(NC)C(=O)O
What was measured:
[1] = test system: MRGPRX4-expressing HEK293 cells (Gαq signaling pathway); assay: Pharmacological blocker experiments: phospho-drug evoked calcium response in MRGPRX4-expressing HEK293 cells after inhibitor preincubation; conditions: 30 min preincubation; 10 µM YM 254890, 20 µM U73122, 10 µM thapsigargin; stimulated with fospropofol, fosphenytoin or dexamethasone phosphate
Procedure: Various HEK293 cell lines were plated on PDL-coated glass coverslips. […] For pharmacological blocker experiments, cells were pre-incubated with signaling pathway inhibitors, including YM254890, U73122, and thapsigargin, for 30 min before imaging.
Traces of [Ca2+] from MRGPRX4-expressing HEK293 cells stimulated with (A) 1 µM
U73122 (middle), or 10 µM sarco/endoplasmic reticulum Ca2+-ATPase inhibitor thapsigargin
(right) for 30 min before imaging.
independent experiments, each performed in quadruplicate.

MRGPRX4 (S83) = molecular target: T1, MRGPRX4 (S83) (Homo sapiens, UniProt Q96LA9, L83S); assay: EC50 determination, intracellular calcium mobilization in MRGPRX4 stably expressed HEK293 cells (FLIPR Calcium 5, Flexstation-3); type: cell-based; set-up: Fig. 1D dose-response, calcium mobilization response (individual replicate) / calcium mobilization response (Fig. 1D dose-response raw data): unit not given here; conditions: for calcium mobilization response (Fig. 1D dose-response raw data): individual replicate values; for EC50: MRGPRX4 stably expressed HEK293 cells, calcium mobilization, read-out: EC50; for Hill coefficient: dose-response curve fitting, table S1
T1 construct: expressed in transfected cells
Procedure: HEK293 cells and MRGPRX4 stably expressed HEK293 cells were seeded in 100 μl culture media on 96-well plates at a density of 40,000 cells per well and incubated overnight. The next day, the media were replaced with a dye-loading solution from the FLIPR Calcium 5 assay kit (Molecular Devices), diluted in Hank's Balanced Salt Solution (HBSS) with 20 mM HEPES, pH 7.4. After 1 h of incubation at 37°C, cells were allowed to recover for 10 min in the dark at room temperature prior to performing intracellular calcium mobilization assay in a Flexstation-3 instrument with SoftMax®Pro 7.1 software (Molecular Devices). Serial concentrations of tested drugs were prepared in HBSS/HEPES solution at 3X concentration. […] Compounds were tested in triplicates and the signals were averaged. Responses were determined by subtracting the minimum signal (at the baseline before adding the drug) from the maximum signal (obtained after drug stimulation). Four-parameter logistic (4PL) curve fit was used to plot the dose-response curves. […] Both dose-response curve fitting and EC50s calculation are computed with GraphPad Prism software (version: 6.o or above).

T1 sequence (Q96LA9 whole entry L83S): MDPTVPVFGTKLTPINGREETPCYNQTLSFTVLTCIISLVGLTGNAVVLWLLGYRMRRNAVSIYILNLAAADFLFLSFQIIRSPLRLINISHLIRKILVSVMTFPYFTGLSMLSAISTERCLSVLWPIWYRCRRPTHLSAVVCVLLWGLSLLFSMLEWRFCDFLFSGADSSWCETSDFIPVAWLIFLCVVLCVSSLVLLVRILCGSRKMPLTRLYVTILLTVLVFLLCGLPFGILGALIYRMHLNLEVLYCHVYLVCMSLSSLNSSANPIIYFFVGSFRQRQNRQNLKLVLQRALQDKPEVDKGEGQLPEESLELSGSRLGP

## C/C=C(/C)C(=O)O[C@H]1C(C)=C2[C@H]([C@@H]1OC(=O)CCCCCCC)[C@@](C)(OC(C)=O)C[C@H](OC(=O)CCC)[C@@]1(O)[C@H]2OC(=O)[C@@]1(C)O [thapsigargin]
[1]
  Effect of inhibitor on phospho-drug evoked calcium response: abolished the calcium response

## C=C1C(=O)NC(C)C(=O)N(C)C(C)C(=O)NC(C(OC(=O)C(NC(C)=O)C(O)C(C)C)C(C)C)C(=O)N(C)C(C(C)OC)C(=O)OC(C)C(NC(C)=O)C(=O)OC(Cc2ccccc2)C(=O)N1C (stereo not drawn) [YM-254890] (Ac-T[PhLac][NMeDha]A[NMeA][X1][NMeT](Me); ester 1-C; configuration not given here)
[1]
  Effect of inhibitor on phospho-drug evoked calcium response: abolished the calcium response

## O=C1NC(=O)C(c2ccccc2)(c2ccc(O)cc2)N1 (stereo not drawn) [Hydroxyphenytoin]
MRGPRX4 (S83); Concentration 9.76563e-7 M
  Fig. 1D dose-response, calcium mobilization response (individual replicate): -13.997 and -18.908 and -71.107 and -31.060
MRGPRX4 (S83); Concentration 1.95313e-6 M
  Fig. 1D dose-response, calcium mobilization response (individual replicate): -36.810 and -38.751 and -15.180 and -28.223
MRGPRX4 (S83); Concentration 3.90625e-6 M
  Fig. 1D dose-response, calcium mobilization response (individual replicate): -53.775 and -34.726 and -87.092 and -4.044
MRGPRX4 (S83); Concentration 7.8125e-6 M
  Fig. 1D dose-response, calcium mobilization response (individual replicate): -6.273 and -4.175 and -11.050 and -115.284
MRGPRX4 (S83); Concentration 1.5625e-5 M
  Fig. 1D dose-response, calcium mobilization response (individual replicate): -23.391 and -58.915 and -49.315 and -20.542
MRGPRX4 (S83); Concentration 3.125e-5 M
  Fig. 1D dose-response, calcium mobilization response (individual replicate): -58.615 and -86.247 and -12.733 and -61.272
MRGPRX4 (S83); Concentration 6.25e-5 M
  Fig. 1D dose-response, calcium mobilization response (individual replicate): -83.462 and -33.574 and -53.783 and -75.169
MRGPRX4 (S83); Concentration 0.00025 M
  Fig. 1D dose-response, calcium mobilization response (individual replicate): -7.298 and -62.458 and -53.853 and -44.871
MRGPRX4 (S83); Concentration 0.0005 M
  Fig. 1D dose-response, calcium mobilization response (individual replicate): -68.434 and -44.648 and -66.219 and -35.443
MRGPRX4 (S83); Concentration 0.001 M
  Fig. 1D dose-response, calcium mobilization response (individual replicate): -67.062 and -39.432 and -24.454 and -47.392
MRGPRX4 (S83); concentration 4.88281e-7 M
  calcium mobilization response (Fig. 1D dose-response raw data): -38.335 and -44.136 and -38.604 and -53.703 and -53.375
MRGPRX4 (S83); concentration 9.76563e-7 M
  calcium mobilization response (Fig. 1D dose-response raw data): -21.881 and -18.856 and -41.417 and -3.943 and -41.401
MRGPRX4 (S83); concentration 1.95313e-6 M
  calcium mobilization response (Fig. 1D dose-response raw data): -33.904 and -36.161 and -55.798 and -55.451 and -16.637
MRGPRX4 (S83); concentration 3.90625e-6 M
  calcium mobilization response (Fig. 1D dose-response raw data): -41.290 and -41.879 and -47.340 and -95.401 and -28.834
MRGPRX4 (S83); concentration 7.8125e-6 M
  calcium mobilization response (Fig. 1D dose-response raw data): -43.390 and -45.131 and -40.251 and -36.055 and -69.327
MRGPRX4 (S83); concentration 1.5625e-5 M
  calcium mobilization response (Fig. 1D dose-response raw data): -49.874 and -56.147 and -54.231 and -13.701 and -87.936
MRGPRX4 (S83); concentration 3.125e-5 M
  calcium mobilization response (Fig. 1D dose-response raw data): -55.112 and -52.780 and -54.634 and -28.441 and -50.624
MRGPRX4 (S83); concentration 6.25e-5 M
  calcium mobilization response (Fig. 1D dose-response raw data): -46.992 and -52.460 and -54.562 and -23.886 and -26.540
MRGPRX4 (S83); concentration 0.00025 M
  calcium mobilization response (Fig. 1D dose-response raw data): -50.524 and -46.583 and -49.203 and -70.603 and -7.273
MRGPRX4 (S83); concentration 0.0005 M
  calcium mobilization response (Fig. 1D dose-response raw data): -43.005 and -35.783 and -32.491 and -3.926 and -40.291

## C[C@]12CCC(=O)C=C1CC[C@@H]1[C@@H]2[C@@H](O)C[C@@]2(C)[C@H]1CC[C@]2(O)C(=O)COP(=O)([O-])[O-].[Na+].[Na+] [Hydrocortisone sodium phosphate]
MRGPRX4 (S83)
  EC50: 328 nM
  Hill coefficient: 1.411

## CC[C@@]1(c2ccccc2)NC(=O)N(C)C1=O [(S)-mephenytoin]
MRGPRX4 (S83); concentration 4.88281e-7 M
  calcium mobilization response (Fig. 1D dose-response raw data): -20.370 and -28.895 and -20.737 and -16.113 and -11.794 and -17.288 and -8.111 and -30.820 and -18.667
MRGPRX4 (S83); concentration 9.76563e-7 M
  calcium mobilization response (Fig. 1D dose-response raw data): -14.910 and -10.110 and -14.446 and -15.834 and -19.023 and -15.341 and -3.659 and -28.710 and -12.463
MRGPRX4 (S83); concentration 1.95313e-6 M
  calcium mobilization response (Fig. 1D dose-response raw data): -18.478 and -17.267 and -18.784 and -17.855 and -11.934 and -14.257 and -17.051 and -23.967 and -8.270
MRGPRX4 (S83); concentration 3.90625e-6 M
  calcium mobilization response (Fig. 1D dose-response raw data): -5.757 and -11.730 and -8.574 and 8.283 and -10.074 and -11.646 and -8.442 and -1.458 and -9.849
MRGPRX4 (S83); concentration 7.8125e-6 M
  calcium mobilization response (Fig. 1D dose-response raw data): 26.923 and 9.795 and -10.857 and -10.275 and -14.955 and -11.140 and -1.065 and -2.234 and -1.955
MRGPRX4 (S83); concentration 1.5625e-5 M
  calcium mobilization response (Fig. 1D dose-response raw data): 9.387 and -3.753 and 17.104 and -13.591 and -6.859 and -9.499 and -1.610 and -1.506 and -0.489
MRGPRX4 (S83); concentration 3.125e-5 M
  calcium mobilization response (Fig. 1D dose-response raw data): 7.318 and 16.609 and 24.858 and -11.449 and -15.821 and -20.419 and 0.176 and 0.206 and 0.166
MRGPRX4 (S83); concentration 6.25e-5 M
  calcium mobilization response (Fig. 1D dose-response raw data): 20.640 and 67.105 and 19.512 and -1.060 and 14.827 and -6.587 and 28.221 and 5.104 and 23.894
MRGPRX4 (S83); concentration 0.00025 M
  calcium mobilization response (Fig. 1D dose-response raw data): 56.723 and 43.018 and 21.772 and 14.354 and 43.622 and 16.555 and 1.733 and 79.374 and 16.915
MRGPRX4 (S83); concentration 0.0005 M
  calcium mobilization response (Fig. 1D dose-response raw data): -10.031 and 14.167 and 0.209 and 8.392 and 6.582 and -2.785 and 5.320 and 0.368 and 2.580

## C[C@]12C=CC(=O)C=C1CC[C@@H]1[C@@H]2[C@@H](O)C[C@@]2(C)[C@H]1CC[C@]2(O)C(=O)COP(=O)(O)O [Prednisolone phosphate]
MRGPRX4 (S83)
  EC50: 267 nM
  Hill coefficient: 0.753

## Cn1nnc(-c2ccc(-c3ccc(N4C[C@H](COP(=O)(O)O)OC4=O)cc3F)cn2)n1 [Tedizolid phosphate]
MRGPRX4 (S83)
  EC50: 157 nM
  Hill coefficient: 1.352

## COc1ccc2c(c1)CC[C@@H]1[C@@H]2CC[C@]2(C)[C@@H](NCCCCCCN3C(=O)C=CC3=O)CC[C@@H]12 [U73122]
[1]
  Effect of inhibitor on phospho-drug evoked calcium response: abolished the calcium response
